ChEMBL document CHEMBL2074297, “Identification of phalloidin uptake systems of rat and human liver” (Biochim Biophys Acta, 2004)
Starred links: 1 amine or outer side, 2 acyl side, 3 side chain; linkers in the order of their positions; H or OH if unused. Positions of bridges follow the written chain, without caps; N, C: chain ends. Non-standard residues stand in square brackets, D forms with d. Residues, ends and D or L forms follow the SMILES beside them. Trp(2-yl) = O=C([C@H](Cc1c([*:3])[nH]c2ccccc12)N[*:1])[*:2]; Leu(4R-OH,5-OH) = C[C@](O)(CO)C[C@H](N)C(=O)O; cisHyp = O=C(O)[C@@H]1C[C@H](O)CN1

What was measured:
[1] = target: T1, Solute carrier organic anion transporter family member 1A4 (Rattus norvegicus, UniProt O35913); assay: (§1) TP_TRANSPORTER: uptake in Xenopus laevis oocytes; format: functional, cell-based; conditions: oocyte
T1 sequence (O35913 whole entry): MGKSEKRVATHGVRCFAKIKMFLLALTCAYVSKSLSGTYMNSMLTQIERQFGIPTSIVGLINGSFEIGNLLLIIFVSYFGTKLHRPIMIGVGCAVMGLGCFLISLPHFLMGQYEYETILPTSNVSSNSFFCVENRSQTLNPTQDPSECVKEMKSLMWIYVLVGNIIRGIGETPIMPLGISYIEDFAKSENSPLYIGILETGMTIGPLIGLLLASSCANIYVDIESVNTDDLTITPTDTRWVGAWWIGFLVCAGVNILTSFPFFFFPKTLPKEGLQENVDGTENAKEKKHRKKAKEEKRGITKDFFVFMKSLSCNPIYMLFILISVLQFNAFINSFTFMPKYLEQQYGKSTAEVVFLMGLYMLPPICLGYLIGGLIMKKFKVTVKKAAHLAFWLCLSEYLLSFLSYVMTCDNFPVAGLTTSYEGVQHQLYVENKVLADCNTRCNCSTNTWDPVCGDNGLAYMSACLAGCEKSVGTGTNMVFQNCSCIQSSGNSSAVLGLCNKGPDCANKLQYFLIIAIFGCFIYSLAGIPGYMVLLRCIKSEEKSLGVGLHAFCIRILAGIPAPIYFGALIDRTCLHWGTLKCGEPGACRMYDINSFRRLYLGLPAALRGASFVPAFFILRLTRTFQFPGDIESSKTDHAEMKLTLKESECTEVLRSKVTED

[2] = target: T2, Solute carrier organic anion transporter family member 2B1 (Homo sapiens, UniProt O94956); assay: as §1; format: functional, cell-based; conditions: oocyte
T2 sequence (O94956 whole entry): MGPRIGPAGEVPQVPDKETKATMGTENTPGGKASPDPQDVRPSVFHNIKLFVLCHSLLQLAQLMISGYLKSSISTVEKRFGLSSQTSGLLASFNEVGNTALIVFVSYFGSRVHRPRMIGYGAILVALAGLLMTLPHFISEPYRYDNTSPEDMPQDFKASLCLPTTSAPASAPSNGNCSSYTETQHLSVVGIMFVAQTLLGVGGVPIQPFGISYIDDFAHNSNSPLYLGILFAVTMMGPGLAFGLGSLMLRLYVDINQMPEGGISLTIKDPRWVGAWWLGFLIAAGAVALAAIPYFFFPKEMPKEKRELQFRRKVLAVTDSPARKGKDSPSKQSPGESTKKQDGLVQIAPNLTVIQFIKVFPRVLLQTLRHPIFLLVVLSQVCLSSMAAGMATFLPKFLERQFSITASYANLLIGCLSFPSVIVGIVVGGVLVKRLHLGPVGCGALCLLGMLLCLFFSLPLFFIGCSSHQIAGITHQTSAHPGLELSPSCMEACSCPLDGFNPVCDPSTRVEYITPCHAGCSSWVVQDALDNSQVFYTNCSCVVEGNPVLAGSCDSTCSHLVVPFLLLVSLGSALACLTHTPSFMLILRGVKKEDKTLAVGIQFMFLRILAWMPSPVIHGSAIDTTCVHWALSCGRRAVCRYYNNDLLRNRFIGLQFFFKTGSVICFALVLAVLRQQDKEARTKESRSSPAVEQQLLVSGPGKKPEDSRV

[3] = target: T3, Hepatic sodium/bile acid cotransporter (Rattus norvegicus, UniProt P26435); assay: as §1; format: functional, cell-based; conditions: oocyte
T3 sequence (P26435 whole entry): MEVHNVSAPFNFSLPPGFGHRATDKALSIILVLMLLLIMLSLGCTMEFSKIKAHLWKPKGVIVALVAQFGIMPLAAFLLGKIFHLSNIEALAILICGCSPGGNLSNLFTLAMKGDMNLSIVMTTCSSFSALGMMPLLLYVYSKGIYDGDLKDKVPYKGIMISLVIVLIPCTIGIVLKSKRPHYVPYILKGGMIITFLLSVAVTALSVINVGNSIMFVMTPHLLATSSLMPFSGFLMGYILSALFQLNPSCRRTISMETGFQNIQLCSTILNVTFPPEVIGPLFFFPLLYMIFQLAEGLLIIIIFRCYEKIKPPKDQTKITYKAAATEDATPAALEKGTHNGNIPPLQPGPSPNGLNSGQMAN

[4] = target: T4, Solute carrier organic anion transporter family member 1A1 (Rattus norvegicus, UniProt P46720); assay: as §1; format: functional, cell-based; conditions: oocyte
T4 sequence (P46720 whole entry): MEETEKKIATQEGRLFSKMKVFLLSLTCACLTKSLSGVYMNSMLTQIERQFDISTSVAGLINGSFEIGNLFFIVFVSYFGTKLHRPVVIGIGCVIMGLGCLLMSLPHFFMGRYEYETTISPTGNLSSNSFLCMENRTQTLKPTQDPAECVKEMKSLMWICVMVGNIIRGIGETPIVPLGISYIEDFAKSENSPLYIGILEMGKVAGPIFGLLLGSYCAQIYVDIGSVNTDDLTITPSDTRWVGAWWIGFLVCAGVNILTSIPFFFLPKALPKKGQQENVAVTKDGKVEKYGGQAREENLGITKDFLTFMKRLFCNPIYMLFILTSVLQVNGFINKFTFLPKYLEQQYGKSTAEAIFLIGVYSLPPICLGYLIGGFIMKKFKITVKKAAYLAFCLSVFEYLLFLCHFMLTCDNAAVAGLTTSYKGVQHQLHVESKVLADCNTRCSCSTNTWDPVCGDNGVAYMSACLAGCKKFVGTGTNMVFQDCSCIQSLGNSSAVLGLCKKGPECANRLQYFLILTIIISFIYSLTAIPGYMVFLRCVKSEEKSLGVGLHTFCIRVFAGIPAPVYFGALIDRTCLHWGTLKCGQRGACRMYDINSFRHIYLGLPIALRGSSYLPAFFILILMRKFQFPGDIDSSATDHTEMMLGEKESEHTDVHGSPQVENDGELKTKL

[5] = target: T5, Solute carrier organic anion transporter family member 1B1 (OATP1B1) (Homo sapiens, UniProt Q9Y6L6); assay: as §1; format: functional, cell-based, Oocyte; conditions: Xenopus laevis oocytes expressing the transporter
T5 sequence (Q9Y6L6 whole entry): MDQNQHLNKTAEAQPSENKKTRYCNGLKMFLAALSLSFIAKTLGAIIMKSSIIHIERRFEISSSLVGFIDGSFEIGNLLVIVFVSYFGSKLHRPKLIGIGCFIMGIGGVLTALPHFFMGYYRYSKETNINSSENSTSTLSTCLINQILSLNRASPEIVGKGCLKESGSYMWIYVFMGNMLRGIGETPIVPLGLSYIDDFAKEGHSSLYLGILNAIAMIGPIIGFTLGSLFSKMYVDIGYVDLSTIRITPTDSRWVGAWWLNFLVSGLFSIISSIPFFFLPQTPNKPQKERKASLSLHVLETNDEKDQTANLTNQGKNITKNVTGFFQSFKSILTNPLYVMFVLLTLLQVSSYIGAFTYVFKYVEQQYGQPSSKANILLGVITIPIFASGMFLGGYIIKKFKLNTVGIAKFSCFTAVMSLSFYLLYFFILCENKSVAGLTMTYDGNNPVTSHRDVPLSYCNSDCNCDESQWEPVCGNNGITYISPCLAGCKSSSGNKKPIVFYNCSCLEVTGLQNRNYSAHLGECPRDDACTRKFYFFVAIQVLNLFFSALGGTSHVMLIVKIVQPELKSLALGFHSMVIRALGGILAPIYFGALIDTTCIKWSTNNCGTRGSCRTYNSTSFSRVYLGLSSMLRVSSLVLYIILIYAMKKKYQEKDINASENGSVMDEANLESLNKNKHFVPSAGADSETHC

[6] = target: T6, Solute carrier organic anion transporter family member 1B3 (OATP1B3) (Homo sapiens, UniProt Q9NPD5); assay: as §1; format: functional, cell-based, Oocyte; conditions: Xenopus laevis oocytes expressing the transporter
T6 sequence (Q9NPD5 whole entry): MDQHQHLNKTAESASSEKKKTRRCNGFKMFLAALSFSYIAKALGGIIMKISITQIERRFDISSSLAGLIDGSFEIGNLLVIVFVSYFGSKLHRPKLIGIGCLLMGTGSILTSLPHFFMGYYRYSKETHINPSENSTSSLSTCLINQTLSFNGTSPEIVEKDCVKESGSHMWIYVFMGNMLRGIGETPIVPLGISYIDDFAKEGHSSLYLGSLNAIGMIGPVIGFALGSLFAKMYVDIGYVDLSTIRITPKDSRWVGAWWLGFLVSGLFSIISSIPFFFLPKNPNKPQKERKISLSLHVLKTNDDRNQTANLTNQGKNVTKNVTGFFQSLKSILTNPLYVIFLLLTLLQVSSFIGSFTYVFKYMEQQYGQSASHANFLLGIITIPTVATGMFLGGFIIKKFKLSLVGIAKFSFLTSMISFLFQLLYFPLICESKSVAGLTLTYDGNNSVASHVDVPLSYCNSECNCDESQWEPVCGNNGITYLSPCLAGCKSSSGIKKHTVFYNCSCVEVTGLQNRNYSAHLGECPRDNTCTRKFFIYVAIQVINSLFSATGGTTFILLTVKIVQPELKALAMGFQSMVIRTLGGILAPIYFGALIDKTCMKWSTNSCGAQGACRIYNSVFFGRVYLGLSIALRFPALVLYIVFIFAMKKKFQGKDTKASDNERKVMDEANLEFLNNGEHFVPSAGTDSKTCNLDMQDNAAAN

[7] = target: T7, Solute carrier organic anion transporter family member 1B2 (OATP1B2) (Rattus norvegicus, UniProt Q9QZX8); assay: as §1; format: functional, cell-based, Oocyte; conditions: Xenopus laevis oocytes expressing the transporter
T7 sequence (Q9QZX8 whole entry): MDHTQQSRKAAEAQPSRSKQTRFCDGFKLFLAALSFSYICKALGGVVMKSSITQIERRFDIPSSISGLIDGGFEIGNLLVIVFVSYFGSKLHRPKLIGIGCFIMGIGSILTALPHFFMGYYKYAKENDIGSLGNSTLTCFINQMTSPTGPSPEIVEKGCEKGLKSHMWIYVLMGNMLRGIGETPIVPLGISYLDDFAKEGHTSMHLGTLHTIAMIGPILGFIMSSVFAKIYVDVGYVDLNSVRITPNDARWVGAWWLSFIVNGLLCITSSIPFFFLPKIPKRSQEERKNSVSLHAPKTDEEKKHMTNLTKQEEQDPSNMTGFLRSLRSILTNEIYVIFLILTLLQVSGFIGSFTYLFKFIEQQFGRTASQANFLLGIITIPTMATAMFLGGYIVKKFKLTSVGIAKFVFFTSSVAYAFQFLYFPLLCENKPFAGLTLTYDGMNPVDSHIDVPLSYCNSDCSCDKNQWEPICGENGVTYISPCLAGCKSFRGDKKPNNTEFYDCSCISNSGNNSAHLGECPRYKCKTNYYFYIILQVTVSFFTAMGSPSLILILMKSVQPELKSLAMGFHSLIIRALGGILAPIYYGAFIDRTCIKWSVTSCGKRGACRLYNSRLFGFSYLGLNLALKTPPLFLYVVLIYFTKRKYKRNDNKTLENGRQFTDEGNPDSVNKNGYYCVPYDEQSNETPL

[8] = target: T1, Solute carrier organic anion transporter family member 1A4; assay: (§2) TP_TRANSPORTER: inhibition of taurocholate uptake (taurocholate: 10 uM) in Xenopus laevis oocytes; format: functional, cell-based; conditions: oocyte
[9] = target: T3, Hepatic sodium/bile acid cotransporter; assay: as §2; format: functional, cell-based; conditions: oocyte
[10] = target: T4, Solute carrier organic anion transporter family member 1A1; assay: as §2; format: functional, cell-based; conditions: oocyte
[11] = target: T8, Solute carrier organic anion transporter family member 1B2 (Rattus norvegicus, UniProt Q9QZX8); assay: as §2; format: functional, cell-based; conditions: oocyte
T8 sequence (Q9QZX8 whole entry): T7 sequence (Q9QZX8 whole entry)

SMILES: CC(O)C[C@@H]1NC(=O)[C@@H]2Cc3c([nH]c4ccccc34)SC[C@@H](NC(=O)[C@H]([C@@H](C)O)NC(=O)[C@H](C)NC1=O)C(=O)N1C[C@H](O)C[C@H]1C(=O)N[C@@H](C)C(=O)N2 (stereo partly specified) [DEMETHYLPHALLOIN]
- Activity [1]: is not a substrate [-]
- Activity [2]: is not a substrate [-]
- Activity [3]: is not a substrate [-]
- Activity [4]: is not a substrate [-]
- Km [5]: 17 µM
- Km [6]: 7.5 µM
- Km [7]: 5.7 µM

SMILES: C[C@@H]1NC(=O)[C@H](C[C@@](C)(O)CO)NC(=O)[C@@H]2Cc3c([nH]c4ccccc34)SC[C@H](NC(=O)[C@@H]([C@H](C)O)NC1=O)C(=O)N1C[C@@H](O)C[C@H]1C(=O)N[C@@H](C)C(=O)N2 [PHALLOIDIN] (cyclo(A[dT]C[cisHyp]A[Trp(2-yl)][Leu(4R-OH,5-OH)]); thioether 3-6)
- Activity [8]: is not an inhibitor [-]
- Activity [9]: is not an inhibitor [-]
- Activity [10]: is not an inhibitor [-]
- Activity [11]: inhibitor [+]
